Legend:
Scenedesmus acutus [1] = experiment: Peroxidizing phytotoxicity against Scenedesmus acutus assessed as ethane production after 20 hr by gas chromatography; format: functional, organism-based; details: read-out: pI50 (converted)
Scenedesmus acutus [2] = experiment: Phytotoxicity against Scenedesmus acutus assessed as reduction in chlorophyll content by spectrophotometry; format: functional, organism-based; details: read-out: pI50 (converted)
[3] = target: T1, Protoporphyrinogen IX oxidase (Zea mays, UniProt Q9FYV8); experiment: Inhibition of Protoporphyrinogen IX oxidase in Zea mays cv. Anjou (maize) seedlings etioplasts homogenates assessed as reduction in protoporphyrin IX production by fluorescence spectroscopy; details: read-out: pI50 (converted)
T1 sequence (Q9FYV8 whole entry): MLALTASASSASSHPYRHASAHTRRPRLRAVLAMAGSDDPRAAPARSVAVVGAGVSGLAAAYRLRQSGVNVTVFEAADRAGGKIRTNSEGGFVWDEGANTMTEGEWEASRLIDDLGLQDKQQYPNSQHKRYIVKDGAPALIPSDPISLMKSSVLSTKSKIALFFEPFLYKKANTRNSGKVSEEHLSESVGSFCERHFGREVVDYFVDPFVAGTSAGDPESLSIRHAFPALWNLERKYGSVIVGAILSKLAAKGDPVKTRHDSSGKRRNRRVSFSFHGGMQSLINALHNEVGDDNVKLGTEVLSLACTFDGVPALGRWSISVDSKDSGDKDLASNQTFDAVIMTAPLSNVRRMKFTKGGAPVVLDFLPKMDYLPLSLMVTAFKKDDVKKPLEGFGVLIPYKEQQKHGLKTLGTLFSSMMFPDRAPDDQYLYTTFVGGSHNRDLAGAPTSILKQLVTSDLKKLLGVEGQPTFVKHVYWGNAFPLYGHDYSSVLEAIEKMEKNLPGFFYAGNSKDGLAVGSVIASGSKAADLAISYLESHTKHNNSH

[4] = target: T2, Protoporphyrinogen IX oxidase (UniProt C1N1S5); experiment: Inhibition of Protoporphyrinogen IX oxidase in Scenedesmus acutus assessed as protoporphyrin IX level per ml of packed cell volume by HPLC; also: test concentration or dose not given here
T2 sequence (whole entry): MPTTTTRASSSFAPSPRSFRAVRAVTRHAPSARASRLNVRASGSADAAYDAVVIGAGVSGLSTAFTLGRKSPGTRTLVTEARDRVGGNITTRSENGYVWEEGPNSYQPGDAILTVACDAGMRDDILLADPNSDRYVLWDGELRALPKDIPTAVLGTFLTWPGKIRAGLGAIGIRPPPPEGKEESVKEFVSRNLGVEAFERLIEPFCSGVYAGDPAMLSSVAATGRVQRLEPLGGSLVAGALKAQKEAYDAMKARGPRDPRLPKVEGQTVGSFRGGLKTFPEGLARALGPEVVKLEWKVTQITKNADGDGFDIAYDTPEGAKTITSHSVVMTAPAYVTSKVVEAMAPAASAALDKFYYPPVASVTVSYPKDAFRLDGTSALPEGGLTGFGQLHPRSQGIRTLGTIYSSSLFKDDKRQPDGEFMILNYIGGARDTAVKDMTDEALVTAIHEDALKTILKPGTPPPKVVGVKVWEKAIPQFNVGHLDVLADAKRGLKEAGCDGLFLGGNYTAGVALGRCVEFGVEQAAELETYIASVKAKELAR

Scenedesmus acutus [5] = experiment: Growth inhibition of Scenedesmus acutus assessed as reduction in packed cell volume; format: functional, organism-based; details: read-out: pI50 (converted)

Row | SMILES | IC50 (Scenedesmus acutus [1]) | IC50 (Scenedesmus acutus [2]) | IC50 [3] | Activity [4] | IC50 (Scenedesmus acutus [5])
1 | S=c1n(-c2ccc(Br)cc2)c(=S)n2n1CCCC2 | 46.8 nM | 37.2 nM | 7.24 nM | 67.9 nmol | 64.6 nM
2 | S=c1n(-c2ccc(Cl)cc2)c(=S)n2n1CCCC2 | 50.1 nM | 43.7 nM | 6.76 nM | 50.3 nmol | 61.7 nM
3 | Fc1cc(Cl)ccc1/N=c1\sc(=S)n2n1CCCC2 | 91.2 nM | 67.6 nM | 1100 nM | 31.5 nmol | 120 nM
4 | CCOc1cc(Oc2ccc(C(F)(F)F)cc2Cl)ccc1[N+](=O)[O-] [OXYFLUORFEN] | 41.7 nM | 21.4 nM | 7.94 nM | 65.6 nmol | 30.9 nM
5 | S=c1n(-c2ccccc2)c(=S)n2n1CCCC2 | 2040 nM | 6310 nM | 3240 nM | 13.2 nmol | 7940 nM
6 | C#CCOc1cc(-n2c(=S)n3n(c2=S)CCCC3)c(F)cc1Cl | 7.24 nM | 1.7 nM | 8.91 nM | 87.2 nmol | 2.04 nM
7 | S=c1s/c(=N\c2ccc(Cl)cc2)n2n1CCCC2 | 550 nM | 234 nM | 1100 nM | 20.3 nmol | 339 nM
8 | COC(=O)CSc1cc(-n2c(=S)n3n(c2=S)CCCC3)c(F)cc1Cl | 158 nM | 141 nM |  | 56 nmol | 186 nM
9 | Fc1cc(Cl)ccc1-n1c(=S)n2n(c1=S)CCCC2 | 27.5 nM | 18.2 nM | 7.24 nM | 70.3 nmol | 23.4 nM
10 | S=c1s/c(=N\c2ccc(OCc3ccc(Cl)cc3)cc2)n2n1CCCC2 | 120 nM | 20 nM | 813 nM | 30.7 nmol | 21.9 nM
11 | S=c1s/c(=N\c2ccccc2)n2n1CCCC2 | 4370 nM | 13800 nM | > 31600 nM | 10.8 nmol | 14100 nM
12 | Cc1cc(Cl)ccc1/N=c1\sc(=S)n2n1CCCC2 | 513 nM | 275 nM | 7590 nM | 20.3 nmol | 457 nM
13 | CC(C)Oc1cc(/N=c2\sc(=S)n3n2CCCC3)c(F)cc1Cl | 166 nM | 11.2 nM | 617 nM | 30.7 nmol | 13.8 nM
14 | S=c1s/c(=N\c2ccc(Br)cc2)n2n1CCCC2 | 550 nM | 148 nM | 741 nM | 25.3 nmol | 162 nM
15 | C#CCOc1cc(/N=c2\sc(=S)n3n2CCCC3)c(F)cc1Cl | 79.4 nM | 5.5 nM | 204 nM | 63.5 nmol | 7.24 nM
16 | Cc1cc(Cl)ccc1-n1c(=S)n2n(c1=S)CCCC2 | 85.1 nM | 85.1 nM | 151 nM | 63.3 nmol | 105 nM
17 | S=c1n(-c2ccc(OCc3ccc(Cl)cc3)cc2)c(=S)n2n1CCCC2 | 22.9 nM | 15.5 nM | 12 nM | 80.3 nmol | 17.4 nM
18 | CC(C)Oc1cc(-n2c(=S)n3n(c2=S)CCCC3)c(F)cc1Cl | 67.6 nM | 5.25 nM | 1.2 nM | 60.2 nmol | 7.59 nM
19 | COC(=O)CSc1cc(/N=c2\sc(=S)n3n2CCCC3)c(F)cc1Cl | 389 nM | 191 nM | 120 nM | 34.1 nmol | 245 nM

Source: ChEMBL document CHEMBL3045795, “Peroxidizing Phytotoxic Activity of 1, 3, 4-Thiadiazolidine-2-thiones and 1, 2, 4-Triazolidine-3, 5-dithiones” (J Pestic Sci, 1995)
